Assay results taken from US7105521B2, “Eugenosedin-A based pharmacoligical agents” (Syn-Tech Chem & Pharm Co., Ltd., priority 2003, dated 2006).

Columns and labels:
α2-adrenergic receptors = experiment: Clonidine-induced contraction of isolated rat thoracic aorta; assay type: cell-based; details: 10^−8, 10^−7, 10^−6 M
Description: (§1) Isolation of rat thoracic aorta. Rat thoracic aorta was removed, cleaned of adhering fat and connective tissue and cut into 3–4 mm wide transverse rings.

α2 receptors = experiment: Receptor binding, [3H]yohimbine, rat cortex; design: species or system Wistar rat
Method: Drugs and chemicals. […] Eugenosedin-A synthesized in this laboratory was solvated in 50% absolute alcohol, 10% propylene glycol and further diluted with distilled water. All of the [^3H] ligand was purchased from New England Nuclear Corp. (Boston, Mass., U.S.A.).
Receptor binding studies. […] The homogenate was pressure filtered through muslin. Filtrate was centrifuged at 1000 g for 10 min. Supernatant was centrifuged at 10,000 g for 12 min at 4° C. The second supernatant was centrifuged at 30,000 g for 15 min at 4° C. The final pellet was re-suspended in assay buffer (75 mM Tris HCl, 25 mM MgCl2, pH 7.4). Protein content was determined by Bradford's method. Radioligand agents and membranes (200–300 μg) were incubated for 60 min at 25° C. with or without the addition of nonspecific binding agents, in a 75 mM Tris HCl buffer with 25 mM MgCl2, to make a final volume of 500 μl. In competitive-binding experiments, the competing agent was added directly to the incubation mixture. Incubation was terminated by addition of 1 ml of ice-cold assay buffer followed by immediate filtration through Whatman GF/C glass fiber filters supported on a 12-port filter manifold (Millipore). The filters were immediately washed 3 times with 5 ml of ice-cold assay buffer and dried in an oven at 60° C. for 2 hours before adding 5 ml of Triton-toluene-based scintillation fluid. Membrane-bound radioligand trapped in the filters was counted in a Beckman LS6500 scintillation system (Fullerton, Calif., U.S.A) with an efficiency of 45%. In each experiment, nonspecifically bound radioligand agents were determined by incubating membrane protein. Specific binding for each sample was obtained by deducting this value from the total binding of radioligand agents.

[1] = LPS-induced vascular hyporeactivity of isolated aorta to phenylephrine; assay type: in vivo, rats
Description: as §1

IFN-γ = experiment: Plasma cytokine immunoreactivity after LPS: IFN-γ; assay type: in vivo, Wistar rats; details: 3 hours after LPS 10 mg kg^−1 i.v.; pretreatment 1 mg kg^−1 i.v.
Method: (§2) Plasma cytokine immunoreactivity and blood glucose. Blood was collected from venous cannula, injected into ice-cold heparinized Eppendorf tubes and centrifuged at 1500 rpm for 10 min at 4° C. Plasma supernatant was stored at −70° C. until analyzed. Solid phase enzyme immunoassay that specifically detects murine IL-1β, IL-6, IFN-γ and TNF-α was used with a detection limit of >10 pg/ml (Endogen, U.S.A). Pretreatment with eugenosedin-A and other agents was performed 15 minutes before intravenous injection of LPS. Blood was collected from venous cannula. Blood glucose was measured with a glucose test strip (Glucotide, Bayer, U.S.A) at 1, 3 and 5 hours.

5-HT re-uptake sites = molecular target: T1, 5-HT re-uptake sites (Rattus norvegicus, UniProt P31652); experiment: 5-HT re-uptake in cerebral cortex synaptosomes; assay type: biochemical, Wistar rats
T1 construct: the cerebral cortex or striatum was dissected and crude synaptosomes were prepared; from tissue; host or cells: crude synaptosomes of Wistar rat cerebral cortex
T1 sequence (P31652 whole entry): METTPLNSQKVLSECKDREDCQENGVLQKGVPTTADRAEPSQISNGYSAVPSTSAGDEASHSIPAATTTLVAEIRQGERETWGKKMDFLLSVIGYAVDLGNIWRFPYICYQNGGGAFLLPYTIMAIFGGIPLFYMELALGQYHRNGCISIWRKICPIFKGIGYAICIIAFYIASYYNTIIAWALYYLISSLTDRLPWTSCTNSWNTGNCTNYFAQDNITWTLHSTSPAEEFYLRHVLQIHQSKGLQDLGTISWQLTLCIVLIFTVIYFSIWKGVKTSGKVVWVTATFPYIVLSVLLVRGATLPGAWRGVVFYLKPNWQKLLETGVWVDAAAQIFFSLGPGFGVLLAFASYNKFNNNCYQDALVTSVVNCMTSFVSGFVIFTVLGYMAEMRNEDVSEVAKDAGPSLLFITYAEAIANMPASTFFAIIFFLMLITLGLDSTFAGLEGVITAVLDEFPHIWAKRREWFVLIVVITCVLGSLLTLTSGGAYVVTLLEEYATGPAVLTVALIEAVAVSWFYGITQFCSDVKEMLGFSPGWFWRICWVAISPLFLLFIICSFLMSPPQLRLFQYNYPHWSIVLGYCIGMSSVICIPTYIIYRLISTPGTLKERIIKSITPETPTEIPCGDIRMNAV
Method: Saline was added to the incubation mixture, which was then filtered through a Whatman GF/B glass filter under reduced pressure. To determine nonspecific uptake, incubation was performed at 0° C.

[2] = Intravenous injection: BP and HR in pentobarbital-anesthetized rats; assay type: in vivo, Wistar rats
Method: (§3) Intravenous injection. The experiments were carried out as previously described (Wu B N. et al., Biochem. Pharmacol., 48:101–109, 1994). In brief, Wistar rats weighing 250–300 grams were anesthetized with pentobarbital sodium (50 mg kg^−1, i.p.). Following tracheal cannulation, systemic arterial BP and HR were recorded from the femoral artery by a pressure transducer (model P10EZ; Spectramed, Oxnard, Calif., U.S.A.) connected to a recorder (GOULD, Valley View, Ohio, Model P50). Body temperature was maintained at 37° C. by an electric heating pad. A femoral vein was cannulated for intravenous injection of drugs and LPS (10 mg kg^−1).

TNF-α = experiment: Plasma cytokine immunoreactivity after LPS: TNF-α; assay type: in vivo, Wistar rats
Method: as §2

[3] = Micro-injection in NTS: BP and HR; assay type: in vivo, rats; details: NTS micro-injection, 0.03, 0.3 μmol, within 30 minutes after injection
Description: Micro-injection in NTS. Rats were anesthetized and placed in a David-Kopf stereotaxic instrument. The cerebellum was exposed after removing the skin and occipital bone. […] At the end of experiments, the animals were sacrificed. The brain was removed and sectioned for histological confirmation of the drug application site.

Blood glucose after LPS = assay type: in vivo, Wistar rats
Method: as §2

IL-6 = experiment: Plasma cytokine immunoreactivity after LPS: IL-6; assay type: in vivo, Wistar rats; details: 3 hours after LPS 10 mg kg^−1 i.v.; pretreatment 1 mg kg^−1 i.v.
Method: as §2

IL-1β = experiment: Plasma cytokine immunoreactivity after LPS: IL-1β; assay type: in vivo, Wistar rats; details: 3 hours after LPS 10 mg kg^−1 i.v.; pretreatment (eugenosedin-A 1 mg kg^−1 i.v.)
Method: as §2

LPS-induced hypotension = assay type: in vivo, Wistar rats; details: LPS 10 mg kg^−1 i.v.
Method: as §3

[4] = i.v., pentobarbital-anesthetized rats

CC=Cc1ccc(OCC(O)CN2CCN(c3ccccc3Cl)CC2)c(OC)c1 (stereo not shown) [eugenosedin-A]
cumulative clonidine-induced contractile activities (α2-adrenergic receptors): competitively inhibited
Ki (α2 receptors): 1.39 µM
order of α2 receptor binding potency (α2 receptors): prazosin >eugenosedin-A >ketanserin >methylsergide >propranolol and 5-HT
aortic contractility to phenylephrine in LPS-treated rats ([1]; 1 mg kg^−1 i.v. before or after LPS, phenylephrine 10^−8~10^−4 M): increased aortic contractility more than the vehicle group
protection from LPS-induced hyporeactivity of the aorta compared with yohimbine, trazodone, aminoguanidine and ascorbic acid ([1]; rat, in vivo): more effective
LPS-induced increase in IFN-γ (IFN-γ): significantly inhibited
IC50 (5-HT re-uptake sites): 34.3 µM
effect on arterial blood pressure after acute intravenous injection ([2]; 0.1, 0.5, 1.0 mg kg^−1 i.v., pentobarbital-anesthetized Wistar rats): mild arterial hypotension
depressor effect compared with trazodone and ketanserin ([2]; i.v., pentobarbital-anesthetized Wistar rats): less than that of trazodone and ketanserin
mean BP and HR after intravenous administration [2, 4]: dose-dependent decrease in mean BP and HR
phenylephrine- and isoprenaline-induced changes in BP and HR [2, 4]: inhibited phenylephrine- and isoprenaline-induced changes in BP and HR
LPS-induced increase in TNF-α (TNF-α; 3 hours after LPS 10 mg kg^−1 i.v., pretreatment (eugenosedin-A 1 mg kg^−1 i.v.)): significantly inhibited
LPS-induced increase in TNF-α (TNF-α; 5 hours after LPS 10 mg kg^−1 i.v., pretreatment): significantly reduced
pressor response and HR [3]: mild, but significant, pressor responses and increased the HR
initial hyperglycemic response to LPS (Blood glucose after LPS; blood glucose at 1 and 3 hours after LPS): inhibited the initial hyperglycemic response to LPS
hypoglycemic response to LPS (Blood glucose after LPS; blood glucose at 5 hours after LPS): did not reverse the hypoglycemic response
LPS-induced increase in IL-6 (IL-6): significantly inhibited
LPS-induced increase in IL-1β (IL-1β): significantly inhibited
development of hypotension after LPS injection and normalization of BP (LPS-induced hypotension; i.v. pretreatment): normalized BP within 5 hours
first immediate hypotensive phase after LPS (LPS-induced hypotension; pretreatment 0.5 mg kg^−1 i.v.): not affected
first immediate hypotensive phase after LPS (LPS-induced hypotension; pretreatment 1 mg kg^−1 i.v.): attenuated it
second prolonged hypotensive phase after LPS (LPS-induced hypotension; pretreatment 0.5 and 1 mg kg^−1 i.v.): significantly reduced
